# Measurements as given in PubChem BioAssay (NCI).
#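 These data come from cells grown in 96-well plates and exposed to compound for 48 hours at five concentrations. TGI denotes the concentration required for complete inhibition of growth.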
# Tests used:
# Assay in all cases: NCI anticancer screen, dose series, 48 h
# [1] = test system: SF-539 CNS
# [2] = test system: HCT-15 colon
# [3] = test system: HL-60(TB) leukemia
# [4] = test system: SN12C renal
# [5] = test system: MCF7 breast
# [6] = test system: OVCAR-3 ovarian
# [7] = test system: BT-549 breast
# [8] = test system: MDA-MB-435
# [9] = test system: DU-145 prostate
# [10] = test system: UACC-62 melanoma
# [11] = test system: SK-OV-3 ovarian
# [12] = test system: CAKI-1 renal
# [13] = test system: UO-31 renal
# [14] = test system: OVCAR-5 ovarian
# [15] = test system: NCI-H522 lung
# [16] = test system: SF-268 CNS
# [17] = test system: T-47D breast
# [18] = test system: M14 melanoma
# [19] = test system: UACC-257 melanoma
# [20] = test system: RPMI-8226 leukemia
# [21] = test system: RXF 393 renal
# [22] = test system: NCI/ADR-RES ovarian
# [23] = test system: SNB-19 CNS
# [24] = test system: SK-MEL-5 melanoma
# [25] = test system: MDA-MB-231 breast
# [26] = test system: HS 578T breast
# [27] = test system: 786-0 renal
# [28] = test system: U251 CNS
# [29] = test system: SF-295 CNS
# [30] = test system: ACHN renal
# [31] = test system: IGROV1 ovarian
# [32] = test system: MDA-N
# [33] = test system: NCI-H23 lung
# [34] = test system: CCRF-CEM leukemia
# [35] = test system: TK-10 renal
# [36] = test system: HT29 colon
# [37] = test system: LOX IMVI melanoma
# [38] = test system: NCI-H226 lung
# [39] = test system: EKVX NSCLC
# [40] = test system: OVCAR-8 ovarian
# [41] = test system: SK-MEL-2 melanoma
# [42] = test system: MALME-3M melanoma
# [43] = test system: SR leukemia
# [44] = test system: SW-620 colon
# [45] = test system: HOP-92 NSCLC
# [46] = test system: COLO 205 colon
# [47] = test system: PC-3 prostate
# [48] = test system: SNB-75 CNS
# [49] = test system: HCT-116 colon
# [50] = test system: A549 NSCLC
# [51] = test system: A498 renal
# [52] = test system: OVCAR-4 ovarian
# [53] = test system: KM12 colon
# [54] = test system: HOP-62 NSCLC
# [55] = test system: HCC-2998 colon
# [56] = test system: MOLT-4 leukemia
# [57] = test system: K-562 leukemia
# [58] = test system: SK-MEL-28 melanoma
# [59] = test system: NCI-H460 lung
smiles,measurement,setting,value
CCCN(C(=O)c1ccccc1)C(C#N)c1ccc(C(C#N)N(CCC)C(=O)c2ccccc2)cc1 (stereo not given),TGI,[1],87.6 µM
same,TGI,[2],> 100 µM
same,TGI,[3],> 100 µM
same,TGI,[4],> 100 µM
same,TGI,[5],> 100 µM
same,TGI,[6],> 100 µM
same,TGI,[7],> 100 µM
same,TGI,[8],> 100 µM
same,TGI,[9],> 100 µM
same,TGI,[10],> 100 µM
same,TGI,[11],> 100 µM
same,TGI,[12],> 100 µM
same,TGI,[13],> 100 µM
same,TGI,[14],> 100 µM
same,TGI,[15],> 100 µM
same,TGI,[16],> 100 µM
same,TGI,[17],85.7 µM
same,TGI,[18],> 100 µM
same,TGI,[19],> 100 µM
same,TGI,[20],> 100 µM
same,TGI,[21],> 100 µM
same,TGI,[22],> 100 µM
same,TGI,[23],74.9 µM
same,TGI,[24],> 100 µM
same,TGI,[25],> 100 µM
same,TGI,[26],86.7 µM
same,TGI,[27],> 100 µM
same,TGI,[28],> 100 µM
same,TGI,[29],> 100 µM
same,TGI,[30],> 100 µM
same,TGI,[31],> 100 µM
same,TGI,[32],> 100 µM
same,TGI,[33],> 100 µM
same,TGI,[34],> 100 µM
same,TGI,[35],> 100 µM
same,TGI,[36],> 100 µM
same,TGI,[37],> 100 µM
same,TGI,[38],65.3 µM
same,TGI,[39],> 100 µM
same,TGI,[40],> 100 µM
same,TGI,[41],> 100 µM
same,TGI,[42],> 100 µM
same,TGI,[43],> 100 µM
same,TGI,[44],> 100 µM
same,TGI,[45],64.4 µM
same,TGI,[46],> 100 µM
same,TGI,[47],> 100 µM
same,TGI,[48],73.3 µM
same,TGI,[49],> 100 µM
same,TGI,[50],> 100 µM
same,TGI,[51],> 100 µM
same,TGI,[52],66.7 µM
same,TGI,[53],> 100 µM
same,TGI,[54],99.3 µM
same,TGI,[55],> 100 µM
same,TGI,[56],> 100 µM
same,TGI,[57],> 100 µM
CC1(C)OC(=O)N(c2ccccc2)C12C=Cc1cc([N+](=O)[O-])cc([N+](=O)[O-])c1O2 (stereo not given),TGI,[2],> 100 µM
same,TGI,[3],> 100 µM
same,TGI,[4],> 100 µM
same,TGI,[5],> 100 µM
same,TGI,[6],> 100 µM
same,TGI,[7],> 100 µM
same,TGI,[8],> 100 µM
same,TGI,[9],> 100 µM
same,TGI,[10],> 100 µM
same,TGI,[11],> 100 µM
same,TGI,[12],> 100 µM
same,TGI,[13],> 100 µM
same,TGI,[14],> 100 µM
same,TGI,[15],> 100 µM
same,TGI,[16],> 100 µM
same,TGI,[17],> 100 µM
same,TGI,[18],> 100 µM
same,TGI,[58],> 100 µM
same,TGI,[19],> 100 µM
same,TGI,[20],> 100 µM
same,TGI,[21],> 100 µM
same,TGI,[22],> 100 µM
same,TGI,[23],> 100 µM
same,TGI,[24],> 100 µM
same,TGI,[25],> 100 µM
same,TGI,[26],> 100 µM
same,TGI,[27],> 100 µM
same,TGI,[28],> 100 µM
same,TGI,[29],> 100 µM
same,TGI,[30],> 100 µM
same,TGI,[31],> 100 µM
same,TGI,[32],> 100 µM
same,TGI,[33],> 100 µM
same,TGI,[34],> 100 µM
same,TGI,[35],> 100 µM
same,TGI,[36],> 100 µM
same,TGI,[37],> 100 µM
same,TGI,[38],> 100 µM
same,TGI,[39],> 100 µM
same,TGI,[40],> 100 µM
same,TGI,[41],> 100 µM
same,TGI,[43],> 100 µM
same,TGI,[44],> 100 µM
same,TGI,[45],> 100 µM
same,TGI,[46],> 100 µM
same,TGI,[47],> 100 µM
same,TGI,[48],> 100 µM
same,TGI,[49],> 100 µM
same,TGI,[50],> 100 µM
same,TGI,[51],> 100 µM
same,TGI,[52],> 100 µM
same,TGI,[53],> 100 µM
same,TGI,[59],> 100 µM
same,TGI,[54],> 100 µM
same,TGI,[55],> 100 µM
same,TGI,[56],> 100 µM
same,TGI,[57],> 100 µM
Cc1ccccc1C(=O)N1CCc2c([nH]c3ccccc23)C1,TGI,[1],48.4 µM
same,TGI,[2],62.1 µM
same,TGI,[3],39.2 µM
same,TGI,[4],34.1 µM
same,TGI,[5],51.8 µM
same,TGI,[6],74.1 µM
same,TGI,[7],42.8 µM
same,TGI,[8],37.3 µM
same,TGI,[9],84.5 µM
same,TGI,[10],31.6 µM
same,TGI,[11],> 100 µM
same,TGI,[12],79.5 µM
same,TGI,[13],> 100 µM
same,TGI,[14],76.3 µM
same,TGI,[15],46.1 µM
same,TGI,[16],> 100 µM
same,TGI,[17],71.8 µM
same,TGI,[18],45.4 µM
same,TGI,[58],> 100 µM
same,TGI,[19],58.2 µM
same,TGI,[20],51.3 µM
same,TGI,[21],43.1 µM
same,TGI,[22],62.7 µM
same,TGI,[23],> 100 µM
same,TGI,[24],29.6 µM
same,TGI,[25],34.1 µM
same,TGI,[26],84.8 µM
same,TGI,[27],54.4 µM
same,TGI,[28],41.3 µM
same,TGI,[29],> 100 µM
same,TGI,[30],> 100 µM
same,TGI,[31],> 100 µM
same,TGI,[32],43.9 µM
same,TGI,[33],50.9 µM
same,TGI,[34],74 µM
same,TGI,[35],80.2 µM
same,TGI,[36],44.7 µM
same,TGI,[37],50.2 µM
same,TGI,[38],65 µM
same,TGI,[39],75 µM
same,TGI,[40],> 100 µM
same,TGI,[41],27 µM
same,TGI,[42],81.5 µM
same,TGI,[43],50 µM
same,TGI,[44],> 100 µM
same,TGI,[45],44.4 µM
same,TGI,[46],31.9 µM
same,TGI,[47],33.9 µM
same,TGI,[48],61.9 µM
same,TGI,[49],33 µM
same,TGI,[50],> 100 µM
same,TGI,[51],51.4 µM
same,TGI,[52],74.9 µM
same,TGI,[53],87 µM
same,TGI,[59],53.4 µM
same,TGI,[54],> 100 µM
same,TGI,[55],33.9 µM
same,TGI,[56],80 µM
same,TGI,[57],62.5 µM
O=C1/C(=C\c2ccccc2)C(NC2CCCCC2)c2ccccc21 (stereo not given),TGI,[1],4.39 µM
same,TGI,[2],5.79 µM
same,TGI,[3],3.02 µM
same,TGI,[4],4.37 µM
same,TGI,[5],2.67 µM
same,TGI,[6],2.51 µM
same,TGI,[7],5.69 µM
same,TGI,[8],3.18 µM
same,TGI,[9],3.09 µM
same,TGI,[10],6.2 µM
same,TGI,[11],27 µM
same,TGI,[12],2.83 µM
same,TGI,[13],2.31 µM
same,TGI,[14],10.4 µM
same,TGI,[15],2.05 µM
same,TGI,[16],13 µM
same,TGI,[17],4.69 µM
same,TGI,[18],3.18 µM
same,TGI,[58],6.06 µM
same,TGI,[19],2.69 µM
same,TGI,[20],2.42 µM
same,TGI,[21],2.93 µM
same,TGI,[22],98.5 µM
same,TGI,[23],22.5 µM
same,TGI,[24],6.65 µM
same,TGI,[25],5.2 µM
same,TGI,[26],16.3 µM
same,TGI,[27],2.14 µM
same,TGI,[28],3.48 µM
same,TGI,[29],33.5 µM
same,TGI,[30],2.34 µM
same,TGI,[31],10.4 µM
same,TGI,[32],3.8 µM
same,TGI,[33],2.28 µM
same,TGI,[34],0.294 µM
same,TGI,[35],2.59 µM
same,TGI,[37],3.33 µM
same,TGI,[38],14.1 µM
same,TGI,[39],11.2 µM
same,TGI,[40],6.09 µM
same,TGI,[41],5.25 µM
same,TGI,[42],3.01 µM
same,TGI,[43],0.473 µM
same,TGI,[44],2.12 µM
same,TGI,[45],4.8 µM
same,TGI,[46],3.22 µM
same,TGI,[47],3.78 µM
same,TGI,[48],4.45 µM
same,TGI,[49],2.44 µM
same,TGI,[50],16.4 µM
same,TGI,[51],32.7 µM
same,TGI,[52],3.93 µM
same,TGI,[53],15.9 µM
same,TGI,[59],8.02 µM
same,TGI,[54],7.21 µM
same,TGI,[56],3.02 µM
same,TGI,[57],5.07 µM
